The results in this text go back to patent publication US12091425B2 (AMGEN INC., priority 2016, dated 2024).

T1 sequence (Q07820 171-327): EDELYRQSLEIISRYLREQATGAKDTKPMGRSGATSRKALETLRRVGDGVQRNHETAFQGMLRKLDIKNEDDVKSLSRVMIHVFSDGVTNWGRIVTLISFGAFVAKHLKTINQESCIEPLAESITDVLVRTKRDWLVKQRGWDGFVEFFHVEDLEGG

The first test has as its target T1, Mcl-1/Bim interaction, recombinant human Mcl-1 (171-327) (Homo sapiens, UniProt Q07820).
T1 construct: made in house
In words: Cell free Mcl-1: Bim Affinity Assay (Mcl-1 HTRF). The format is binding. Conditions: TR-FRET, 0.1 nM Mcl-1 (171-327), 0.05 nM biotin-Bim (51-76). A digest of the protocol: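 Biotin-Bim(51-76) peptide, TR-FRET readout, overnight incubation; IC50 from duplicate competition curves, 4-parameter fit.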
Consider `CC[C@@H]1CC/C=C/[C@H](OCCS(C)(=O)=O)[C@@H]2CC[C@H]2CN2C[C@@]3(CCCc4cc(Cl)ccc43)COc3ccc(cc32)C(=O)NS1(=O)=O` [Example 981, (1S,3′R,6′R,7′S,8′E,12′R)-6-chloro-12′-ethyl-7′-(2-(methylsulfonyl)ethoxy)-3,4-dihydro-2H,15′H-spiro[naphthalene-1,22′-[20]oxa[13]thia[1,14]diazatetracyclo[14.7.2.0^3,6.0^19,24]pentacosa [8,16,18,24]tetraen]-15′-one 13′,13′-dioxide], for which the IC50 is 0.943 nM.
As for `O=C1NS(=O)(=O)[C@H]2C[C@@H](O)C[C@@H]2C/C=C/[C@H](O)[C@@H]2CC[C@H]2CN2C[C@@]3(CCCc4cc(Cl)ccc43)COc3ccc1cc32` (single isomer, unassigned) [Example 336], the IC50 is 1.51 nM.
Consider `CN(C)C(=O)[C@@H]1CC/C=C/[C@H](O)[C@@H]2CC[C@H]2CN2C[C@@]3(CCCc4cc(Cl)ccc43)COc3ccc(cc32)C(=O)NS1(=O)=O` (single isomer, unassigned) [Example 436], for which the IC50 was 0.243 nM.
The same measure, in the same setting: for `O=C1NS(=O)(=O)C(CO)CCC=CCC2CCC2CN2CC3(CCCc4cc(Cl)ccc43)COc3ccc1cc32` (single isomer, unassigned) [Example 450] the value was 6.76 nM.
As for `O=C1NS(=O)(=O)[C@@H](C(F)(F)F)CCCC[C@H](O)[C@@H]2CC[C@H]2CN2C[C@@]3(CCCc4cc(Cl)ccc43)COc3ccc1cc32` (single isomer, unassigned) [Example 433], the IC50 amounted to 3.23 nM.
For the compound `O=C1NS(=O)(=O)CCCCCS(=O)(=O)C2CCC2CN2C[C@@]3(CCCc4cc(Cl)ccc43)COc3ccc1cc32` (mixture of isomers) [Example 196], the IC50 amounted to 22.2 nM.
Still for that read-out and setting: the value for `CC[C@@H]1CC/C=C/[C@H](OCc2ccccn2)[C@@H]2CC[C@H]2CN2C[C@@]3(CCCc4cc(Cl)ccc43)COc3ccc(cc32)C(=O)NS1(=O)=O` [Example 976, (1S,3′R,6′R,7′S,8′E,12′R)-6-chloro-12′-ethyl-7′-(2-pyridinylmethoxy)-3,4-dihydro-2H,15′H-spiro[naphthalene-1,22′-[20]oxa[13]thia[1,14]diazatetracyclo[14.7.2.0^3,6.0^19,24]pentacosa [8,16,18,24]tetraen]-15′-one 13′,13′-dioxide] was 10.4 nM; that for `COC[C@H]1CC/C=C/[C@H](O)[C@@H]2CC[C@H]2CN2C[C@@]3(CCCc4cc(Cl)ccc43)COc3ccc(cc32)C(=O)NS1(=O)=O` [Example 435, (1S,3′R,6′R,7′S,8′E,12′R)-6-chloro-7′-hydroxy-12′-(methoxymethyl)-3,4-dihydro-2H,15′H-spiro[naphthalene-1,22′-[20]oxa[13]thia[1,14]diazatetracyclo[14.7.2.0^3,6.0^19,24]pentacosa [8,16,18,24]tetraen]-15′-one 13′,13′-dioxide] was 2.56 nM.
As to `C=C1CC/C=C/[C@H](O)[C@@H]2CC[C@H]2CN2C[C@@]3(CCCc4cc(Cl)ccc43)COc3ccc(cc32)C(=O)NS1(=O)=O` (single isomer, unassigned) [Example 441], the IC50 is 0.632 nM.

The same test, now with this note: cell free Mcl-1:Bim TR-FRET, recombinant human Mcl-1 (171-327).
Consider `O=C1NS(=O)(=O)CCC/C=C/C[C@@H]2CC[C@H]2CN2C[C@@]3(CCCc4cc(Cl)ccc43)COc3ccc1cc32` (single isomer, unassigned) [Example 495], for which the IC50 is 2.48 nM.
On the same count and under the same terms, the value for `CC#CC1=CC(O)CCC(C)S(=O)(=O)NC(=O)c2ccc3c(c2)N(CC2CCC12)CC1(CCCc2cc(Cl)ccc21)CO3` (single isomer, unassigned) [Example 606] was 13.5 nM; that for “(1S,3′R,6′S,14′S,15′S)-6-chloro-3,4-dihydro-2H,9′H,17′H-spiro[naphthalene-1,24′-[22]oxa[15]thia[1,10,16]triazapentacyclo[16.7.2.1^10,14.0^3,6.0^21,26]octacosa[18,20,26]triene]-9′,17′-dione 15′-oxide or (1S,3′R,6′S,14′S,15′R)-6-chloro-3,4-dihydro-2H,9′H,17′H-spiro[naphthalene-1,24′-[22]oxa[15]thia[1,10,16]triazapentacyclo[16.7.2.1^10,14.0^3,6.0^21,26]octacosa[18,20,26]triene]-9′,17′-dione 15′-oxide [Example 949]” was 8.43 nM; that for `C[C@@H]1CC/C=C/[C@H](O)[C@@H]2CC[C@H]2CN2C[C@@]3(CCc4cc(Cl)ccc43)COc3ccc(cc32)C(=O)NS1(=O)=O` [Example 698, (1S,3′R,6′R,7′S,8′E,12′R)-5-chloro-7′-hydroxy-12′-methyl-2,3-dihydro-15′H-spiro[indene-1,22′-[20]oxa[13]thia[1,14]diazatetracyclo[14.7.2.0^3,6.0^19,24]pentacosa [8,16,18,24]tetraen]-15′-one 13′,13′-dioxide] was 0.679 nM.
For `CC1C(O)CC=CCC2CCC2CN2CC3(CCCc4cc(Cl)ccc43)COc3ccc(cc32)C(=O)NS1(=O)=O` (single isomer, unassigned) [Example 507], the IC50 is 18.3 nM.
For the compound `CC(C)(O)[C@@H]1CC/C=C/[C@H](O)[C@@H]2CC[C@H]2CN2C[C@@]3(CCCc4cc(Cl)ccc43)COc3ccc(cc32)C(=O)NS1(=O)=O` (single isomer, unassigned) [Example 697], the half-maximal inhibitory concentration (IC50) came out at 0.746 nM.
Same read-out and setting: the value for `O=C1NS(=O)(=O)CC/C=C/[C@H](O)C[C@@H]2CC[C@H]2CN2C[C@@]3(CCCc4cc(Cl)ccc43)COc3ccc1cc32` (single isomer, unassigned) [Example 884, (1S,3′R,6′S,8′R,9′E)-6-chloro-8′-hydroxy-3,4-dihydro-2H,15′H-spiro[naphthalene-1,22′-[20]oxa[13]thia[1,14]diazatetracyclo[14.7.2.0^3,6.0^19,24]pentacosa [9,16,18,24]tetraen]-15′-one 13′,13′-dioxide or (1S,3′R,6′S,8′S,9′E)-6-chloro-8′-hydroxy-3,4-dihydro-2H,15′H-spiro[naphthalene-1,22′-[20]oxa[13]thia[1,14]diazatetracyclo[14.7.2.0^3,6.0^19,24]pentacosa [9,16,18,24]tetraen]-15′-one 13′,13′-dioxide] was 1.29 nM.
On the same count and under the same terms, the value for `COC[C@@]1(C)C/C=C/[C@H](O)[C@@H]2CC[C@H]2CN2C[C@@]3(CCCc4cc(Cl)ccc43)COc3ccc(cc32)C(=O)NS1(=O)=O` (single isomer, unassigned) [Example 774] was 1.72 nM.
Take `O=C1NS(=O)(=O)C/C=C\CCC[C@@H]2CC[C@H]2CN2C[C@@]3(CCCc4cc(Cl)ccc43)COc3ccc1cc32` (single isomer, unassigned) [Example 497]: the IC50 turned out to be 4 nM.
`O=C1NS(=O)(=O)CCCCC[C@@H](NC(=O)C2CC2)[C@@H]2CC[C@H]2CN2C[C@@]3(CCCc4cc(Cl)ccc43)COc3ccc1cc32` (single isomer, unassigned) [Example 937]: the IC50 turned out to be 4.75 nM.
With `O=C1NS(=O)(=O)CCCCC[C@@H](CO)[C@@H]2CC[C@H]2CN2C[C@@]3(CCCc4cc(Cl)ccc43)COc3ccc1cc32` (single isomer, unassigned) [Example 898, (1S,3′R,6′R,7′R)-6-chloro-7′-(hydroxymethyl)-3,4-dihydro-2H,15′H-spiro[naphthalene-1,22′-[20]oxa[13]thia[1,14]diazatetracyclo[14.7.2.0^3,6.0^19,24]pentacosa [16,18,24]trien]-15′-one 13′,13′-dioxide or (1S,3′R,6′R,7′S)-6-chloro-7′-(hydroxymethyl)-3,4-dihydro-2H,15′H-spiro[naphthalene-1,22′[20]oxa[13]thia[1,14]diazatetracyclo[14.7.2.0^3,6.0^19,24]pentacosa[16,18,24]trien]-15′-one 13′,13′-dioxide], the IC50 is 4.03 nM.
As for `O=C1NS(=O)(=O)CCOC[C@@H](O)[C@@H]2CC[C@H]2CN2C[C@@]3(CCCc4cc(Cl)ccc43)COc3ccc1cc32` (single isomer, unassigned) [Example 866, (3R,6R,7S,21S)-6′-chloro-7-hydroxy-3′,4′-dihydro-2′H,14H-spiro[9,19-dioxa-12-thia-1,13-diazatetracyclo[13.7.2.0^3,6.0^18,23]tetracosa-15,17,23-triene-21,1′-naphthalen]-14-one 12,12-dioxide or (3R,6R,7R,21S)-6′-chloro-7-hydroxy-3′,4′-dihydro-2′H,14H-spiro[9,19-dioxa-12-thia-1,13-diazatetracyclo[13.7.2.0^3,6.0^18,23]tetracosa-15,17,23-triene-21,1′-naphthalen]-14-one 12,12-dioxide], the IC50 is 9.53 nM.
Regarding `COc1ccc(C)c(NC(=O)C[C@@H]2CC/C=C/[C@H](O)[C@@H]3CC[C@H]3CN3C[C@@]4(CCCc5cc(Cl)ccc54)COc4ccc(cc43)C(=O)NS2(=O)=O)c1` (single isomer, unassigned) [Example 629], the IC50 amounted to 2.3 nM.
Same read-out and setting: for `O=C1NS(=O)(=O)CCCCCC(=NO)C2CCC2CN2CC3(CCCc4cc(Cl)ccc43)COc3ccc1cc32` (mixture of isomers) [Example 932, (1S,3′R,6′R,7′Z)-6-chloro-3,4-dihydro-2H,7′H,15′H-spiro[naphthalene-1,22′-[20]oxa[13]thia[1,14]diazatetracyclo[14.7.2.0^3,6.0^19,24]pentacosa [16,18,24]triene]-7,15′-dione 7-OXIME 13′,13′-dioxide and (1S,3′R,6′R,7′E)-6-chloro-3,4-dihydro-2H,7′H,15′H-spiro[naphthalene-1,22′-[20]oxa[13]thia[1,14]diazatetracyclo[14.7.2.0^3,6.0^19,24]pentacosa [16,18,24]triene]-7′,15′-dione 7-OXIME 13′,13′-dioxide] the value was 3.69 nM.
